From patent US12516052B2, “Methyltransferase 5 (PRMT5) inhibitors and methods of treatment” (THE TRUSTEES OF INDIANA UNIVERSITY, priority 2016, dated 2026)
“Also recorded” adds a separate entry of the source.

Assays:
NF-κB = NF-κB luciferase assay in HT29 cells; assay type: cell-based; settings: increasing concentrations
Excerpt: Previously, it was discovered that PRMT5 activates NF-κB through methylation of its p65 subunit in HEK293 cells (Wei et al., Proc Natl Acad Sci USA, 2013; 110: 13516-13521; Wei et al., Cell Cycle, 2013; 13: 32-41). As shown in FIGS. 11A and 11B, overexpression of PRMT5 enhances NF-κB activity, while PRMT5 knockdown causes the opposite effect in both PANC1 (FIG. 11A) and HT-29 (FIG. 11B) cells. To determine if compound (IIa) decreases NF-κB activity, cells transfected with a NF-κB luciferase construct were treated with increasing concentrations of compound (IIa) or the control compound EPZ015666.

[1] = system: PRMT5-mediated p65 methylation; assay: Co-immunoprecipitation-Western blot of p65 dimethylation in 293-WT-p65-Flag cells; assay type: cell-based; settings: 20 μM for 24 hours, compared to untreated control
Excerpt: FIGS. 2A-D depict the experimental results of studies to determine the PRMT5 inhibitory activity of a compound of formula (II), a compound of formula (III), and a compound of formula (IV). […] Flag beads were used to pull down WT-p65-Flag and samples were then probed with anti-symmetric dimethyl arginine motif Ab (sdme-RG Ab) to detect dimethylation levels of the p65 subunit.
Amongst the hits, the leading compounds were a compound of formula (II), specifically compound (IIa), a compound of formula (III), specifically compound (IIIa), and a compound of formula (IV), specifically compound (Iva). […] To determine whether compound (IIa) reduced p65 methylation of NF-κB, Flag-p65 expressing cells were treated with 20 μM compound (IIa) for 24 hours, Flag-p65 was then pulled down with anti-Flag-M2 beads and analyzed with Western blot by probing with anti-dimethylated arginine (FIG. 2B).

PRMT5 = target: T1, PRMT5 (Homo sapiens, UniProt O14744); assay: AlphaLISA PRMT5 methylation assay (biotin-histone H4R3, SAM); assay type: biochemical; settings: PRMT5 methylation of histone H4R3, in vitro; read-out: IC50 using AlphaLISA
T1 construct: Flag; made in house; host or cells: 293 cells
T1 sequence (O14744 whole entry): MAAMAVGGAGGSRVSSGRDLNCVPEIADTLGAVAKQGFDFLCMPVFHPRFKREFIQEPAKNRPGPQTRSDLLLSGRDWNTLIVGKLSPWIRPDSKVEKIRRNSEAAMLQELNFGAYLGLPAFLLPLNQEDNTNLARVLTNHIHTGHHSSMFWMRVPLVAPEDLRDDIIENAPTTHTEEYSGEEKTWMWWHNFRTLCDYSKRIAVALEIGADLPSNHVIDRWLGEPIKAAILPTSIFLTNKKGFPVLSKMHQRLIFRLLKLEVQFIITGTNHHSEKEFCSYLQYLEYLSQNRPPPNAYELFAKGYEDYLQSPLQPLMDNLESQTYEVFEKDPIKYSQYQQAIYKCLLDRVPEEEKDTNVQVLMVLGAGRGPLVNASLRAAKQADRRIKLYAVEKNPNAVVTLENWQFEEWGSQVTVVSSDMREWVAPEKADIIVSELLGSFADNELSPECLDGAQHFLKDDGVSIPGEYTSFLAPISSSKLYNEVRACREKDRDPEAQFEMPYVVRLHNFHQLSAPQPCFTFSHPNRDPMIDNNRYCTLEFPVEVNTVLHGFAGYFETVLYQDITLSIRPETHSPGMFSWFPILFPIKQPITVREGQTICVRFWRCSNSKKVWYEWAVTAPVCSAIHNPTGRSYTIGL
T1 sequence (Q9BQA1 whole entry partner): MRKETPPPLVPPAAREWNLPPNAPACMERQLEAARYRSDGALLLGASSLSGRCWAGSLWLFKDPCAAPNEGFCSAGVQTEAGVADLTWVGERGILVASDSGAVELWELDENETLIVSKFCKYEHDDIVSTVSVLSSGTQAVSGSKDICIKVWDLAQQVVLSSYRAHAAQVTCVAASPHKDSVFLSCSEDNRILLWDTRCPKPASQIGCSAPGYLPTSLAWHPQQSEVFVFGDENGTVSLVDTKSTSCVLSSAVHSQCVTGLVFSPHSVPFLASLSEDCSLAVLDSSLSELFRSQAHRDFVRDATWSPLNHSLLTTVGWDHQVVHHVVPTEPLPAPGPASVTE
Experimental: FIG. 1 is a schematic illustration of the AlphaLISA technique for the identification of small-molecule PRMT5 inhibitors. Biotinylated substrate (histone H4) is incubated with PRMT5 and methyl donor, S-adenosyl-1-methionine (SAM). PRMT5 symmetrically dimethylates the third arginine (R3) on biotin-H4 to form biotin-H4R3me2. This product is recognized by Acceptor beads specific for this methylation site. Donor beads have a streptavidin tag and bind to biotin-H4. Interaction between the Acceptor and Donor beads emits a chemiluminescent signal, which is detected by an ENVISION™ Reader (PerkinElmer, Waltham, MA). The methylation activity of PRMT5 is proportional to the intensity of this signal.
In order to identify PRMT5 inhibitors, the AlphaLISA technique (PerkinElmer, Waltham, MA) was adapted to an assay that could precisely quantify PRMT5 dimethylation of its substrate in a 384-well HTS platform (FIG. 1). The AlphaLISA high-throughput screen comprises incubating a biotinylated substrate (e.g., histone H4), PRMT5, and a methyl donor (e.g., S-adenosyl-1-methionine (SAM)); PRMT5 dimethylates the biotinylated substrate and the dimethylated biotinylated substrate is recognized by Acceptor beads specific for the methylation site. Donor beads comprising a tag (e.g., streptavadin) bind to the biotinylated substrate, and interaction between the Acceptor beads and Donor beads emits a signal (e.g., chemiluminescent signal), which can be detected. The methylation activity of PRMT5 is proportional to the intensity of the signal.
In one embodiment of the method used to identify the compounds disclosed herein, PRMT5 enzyme was purified with anti-Flag-M2 beads (Sigma-Aldrich, St. Louis, MO) from 293 cells overexpressing the Flag-PRMT5 protein (Wei et al., Proc Natl Acad Sci USA, 2013; 110: 13516-13521). The enzyme prep was diluted at 1:10 in assay buffer (30 mM Tris, pH 8.0, 1 mM DTT, 0.01% BSA, 0.01% Tween-20) before use. […] The plates were read using an ENVISION™ Reader (PerkinElmer, Waltham, MA).

HT29 cells = assay: Anchorage-independent (soft agar) growth assay in HT29 cells; assay type: cell-based; settings: increasing concentrations
Experimental: The ability to form colonies suspended in soft agar is a characteristic of cancer cells. By using the stable cell lines established above, an anchorage-independent assay in soft agar was conducted. 2.5% and 1.25% agar were used to prepare the bottom and top layers of the soft agar, respectively. The bottom agar was added to each well of a 6-well plate. 2×10^5 cells for each cell line were then added and mixed into top agar solution and layered on top of the bottom layer. The plates were incubated for 10-20 days at 37° C. and 5% CO2. Images were captured using a Canon EOS Rebel T3i Digital SLR camera (Canon, Woodridge, IL) and quantification of colony size and number was performed using ImageJ. […] A soft agar experiment was also performed to determine the effect of compound (IIa) on colony growth.

[2] = system: NF-κB target genes (TNFα and IL8); assay: qPCR of NF-κB target genes in HT29 cells; assay type: cell-based; settings: treated vs untreated
Experimental: Furthermore, experiments were performed to determine if PRMT5 inhibition by compound (IIa) could decrease the expression of NF-κB target genes (e.g., pro-inflammatory cytokines TNFα and IL-8). Briefly, HT29 and PANC1 cells were treated with or without compound (IIa), and target gene expression was analyzed by quantitative PCR.

IC50 (PRMT5): ~7.5 µM
Compound: Cc1ccc(Nc2nc(NCCN(C)C)nc3c2cnn3-c2ccccc2)cc1C [compound (IIa)]
NF-κB activation (luciferase), HT29 (NF-κB): corresponding decrease in NF-κB activation
methylation of PRMT5 substrate p65 [1]: significantly inhibited PRMT5-mediated p65 methylation; also recorded: inhibited the methylation of PRMT5 substrate, p65
anchorage-independent growth / colony formation, HT29 (CRC) (HT29 cells): strongly inhibited colony formation; also recorded: significant decrease
IL8 expression (qPCR), HT29 [2]: significant decrease; also recorded: dramatically decreased
TNFα expression (qPCR), HT29 [2]: significant decrease; also recorded: dramatically decreased
